Measurements reported in patent publication US20030027286A1, “Bacterial promoters and methods of use” (priority 2000, published 2003).

Columns and labels:
[1] = test system: Staphylococcus aureus cells expressing antisense to the β subunit of gyrase; assay: Antibiotic IC50 plus/minus xylose in Staphylococcus aureus expressing antisense to gyrase β subunit; format: cell-based; details: antisense to gyrase β subunit under Xyl-T5; 12 mM vs 0 mM xylose; FIG. 15
Procedure: Sensitized cells were also used to identify the pathway in which a gene required for proliferation of Staphylococcus aureus lies. Antibiotics of various chemical classes and modes of action were purchased from chemical suppliers, for example Sigma Chemicals (St. Louis, Mo.). Stock solutions were prepared by dissolving each antibiotic in an appropriate aqueous solution based on information provided by the manufacturer. The final working solution of each antibiotic contained no more than 0.2% (w/v) of any organic solvent.
To determine its potency against a bacterial strain containing an antisense nucleic acid complementary to the sequence encoding the Beta (>) subunit of gyrase (which is required for proliferation) under the control of the Xyl-T5 fusion promoter, each antibiotic was serially diluted two or three fold in growth medium supplemented with the appropriate antibiotic for maintenance of the anti-sense construct. At least ten dilutions were prepared for each antibiotic.
Aliquots (25 μL) of each dilution were transferred to discrete wells of a 384-well microplate (the assay plate) using a multi-channel pipette. Quadruplicate wells were used for each dilution of an antibiotic under each treatment condition (plus and minus inducer). Each assay plate retained twenty wells for cell growth controls (growth media replacing antibiotic), ten wells for each treatment (plus and minus inducer, in this example xylose). Half the assay plate contained induced cells (in this example Staphylococcus aureus cells) and appropriate concentrations of inducer (in this example xylose) to maintain the state of induction while the other half of the assay plate contained non-induced cells in the absence of inducer.
Cells of a bacterial clone containing a construct in which expression of antisense complementary to the sequence encoding the β subunit of gyrase under the control of a xylose inducible promoter were grown into exponential growth (OD600 0.2 to 0.3) and then diluted 1:100 into fresh media containing either 12 mM or 0 mM inducer (xylose). These cultures were incubated at 37° C. for 2.5 hr. The presence of inducer (xylose) in the medium initiates and maintains production of antisense RNA from the antisense construct, in this case. After a 2.5 hr incubation, induced and non-induced cells were respectively diluted into an assay medium containing an appropriate concentration of the antibiotic for the maintenance of the anti-sense construct. In addition, medium used to dilute induced cells was supplemented with 24 mM xylose so that addition to the assay plate would result in a final xylose concentration of 12 mM. The cells were diluted to a final OD600 value of 0.0004.
Induced and non-induced cell suspensions were dispensed (25 :l/well) into the appropriate wells of the assay plate as discussed previously. The plate was then loaded into a plate reader and incubated at constant temperature while cell growth was monitored in each well by the measurement of light scattering at 595 nm. Growth was monitored every 5 minutes until the cell culture attained a stationary growth phase. For each concentration of antibiotic, a percentage inhibition of growth was calculated at the time point corresponding to mid-exponential growth for the associated control wells (no antibiotic, plus or minus xylose). For each antibiotic and condition (plus or minus xylose), plots of percent inhibition versus Log of antibiotic concentration were generated and IC50s determined.

[2] = test system: E. coli expressing antisense RNA; assay: Antibiotic sensitivity of E. coli sensitized by IPTG-induced antisense RNA; format: cell-based, Escherichia coli; details: for sensitivity to antibiotic of antisense-expressing clones: initial experiments
Source text: The effectiveness of the above cell-based assay was validated using constructs expressing antisense RNA to the proliferation required E. coli genes rplL, rplJ, and rplW encoding ribosomal proteins L7/L12, L10 and L23 respectively. These proteins are part of the protein synthesis apparatus of the cell and as such are required for proliferation. These constructs were used to test the effect of antisense expression on cell sensitivity to antibiotics known to bind to the ribosome and thereby inhibit protein synthesis. Constructs expressing antisense RNA to several other genes (elaD, visC, yohH, and atpE/B), the products of which are not involved in protein synthesis were used for comparison.
First, pLex5BA (Krause et al. 1997. J. Mol. Biol. 274: 365, the disclosure of which is incorporated herein by reference in its entirety) expression vectors containing antisense constructs to either rplW or to elaD were introduced into separate E. coli cell populations. Vector introduction is a technique well known to those of ordinary skill in the art. The expression vectors of this example contain IPTG inducible promoters that drive the expression of the antisense RNA in the presence of the inducer. However, those skilled in the art will appreciate that other inducible promoters may also be used. Suitable expression vectors are also well known in the art. The E. coli antisense clones to genes encoding ribosomal proteins L7/L12, L10 and L23 were used to test the effect of antisense expression on cell sensitivity to the antibiotics known to bind to these proteins. […]
The cell populations were exposed to a range of IPTG concentrations in liquid medium to obtain the growth inhibitory dose curve for each clone. First, seed cultures were grown to a particular turbidity that is measured by the optical density (OD) of the growth solution. […] The cells were grown for up to 15 hours and the extent of growth was determined by measuring the optical density of the cultures at 600 nm. […]

| SMILES | potency in induced cells as compared to uninduced cells [1] | further results |
| --- | --- | --- |
| CO[C@@]1(NC(=O)Cc2cccs2)C(=O)N2C(C(=O)O)=C(COC(N)=O)CS[C@@H]21 [cefoxitin] | not significantly different | – |
| CN[C@H](CC(C)C)C(=O)N[C@H]1C(=O)N[C@@H](CC(N)=O)C(=O)N[C@H]2C(=O)N[C@H]3C(=O)N[C@H](C(=O)N[C@H](C(=O)O)c4cc(O)cc(O)c4-c4cc3ccc4O)[C@H](O)c3ccc(c(Cl)c3)Oc3cc2cc(c3O[C@@H]2O[C@H](CO)[C@@H](O)[C@H](O)[C@H]2O[C@H]2C[C@](C)(N)[C@H](O)[C@H](C)O2)Oc2ccc(cc2Cl)[C@H]1O [vancomycin] | not significantly different | – |
| CC(=O)O[C@H]1C[C@@]2(C)[C@@H](C[C@@H](O)[C@H]3[C@@]4(C)CC[C@@H](O)[C@@H](C)[C@@H]4CC[C@@]32C)/C1=C(\CCC=C(C)C)C(=O)O [fusidic acid] | not significantly different | – |
| COc1cc(Cc2cnc(N)nc2N)cc(OC)c1OC [trimethoprim] | not significantly different | – |
| NC[C@H]1O[C@H](O[C@H]2[C@H](O)[C@@H](O[C@H]3O[C@H](CO)[C@@H](O)[C@H](N)[C@H]3O)[C@H](N)C[C@@H]2N)[C@H](N)C[C@@H]1O [tobramycin] | not significantly different | – |
| CCn1cc(C(=O)O)c(=O)c2ccc(C)nc21 [nalidixic acid] | – | sensitivity to antibiotic of antisense-induced cells ([2]; E. coli expressing antisense to rplL and rplJ (reduced L7/L12), IPTG): does not show increased sensitivity |
| CCC[C@@H]1C[C@@H](C(=O)N[C@@H]([C@H]2O[C@H](SC)[C@H](O)[C@@H](O)[C@H]2O)[C@@H](C)O)N(C)C1 [lincomycin] | not significantly different | – |
| CC[C@H]1OC(=O)[C@H](C)[C@@H](O[C@H]2C[C@@](C)(OC)[C@@H](O)[C@H](C)O2)[C@H](C)[C@@H](O[C@@H]2O[C@H](C)C[C@H](N(C)C)[C@H]2O)[C@](C)(O)C[C@@H](C)C(=O)[C@H](C)[C@@H](O)[C@]1(C)O [erythromycin] | – | sensitivity to antibiotic of antisense-expressing clones ([2]; clones antisense to non-protein synthesis genes elaD, atpB/E and visC): do not; sensitivity to antibiotic of antisense-expressing clones ([2]; clones antisense to protein synthesis genes (L7/L12 & L10, L7/L12 alone, L22, L18, rRNA, Elongation Factor G)): increased sensitivity |
| CO[C@@H]1[C@@H](OC(N)=O)[C@@H](O)[C@H](Oc2ccc3c(O)c(NC(=O)c4ccc(O)c(CC=C(C)C)c4)c(=O)oc3c2C)OC1(C)C [novobiocin] | significantly different | – |
| CO/N=C(\C(=O)N[C@@H]1C(=O)N2C(C(=O)O)=C(COC(C)=O)CS[C@H]12)c1csc(N)n1 [cefotaxime] | not significantly different | – |
